Test results as given in ChEMBL document CHEMBL5338707, “Design, synthesis and bioactivity evaluation of favorable evodiamine derivative scaffold for developing cancer therapy” (Eur J Med Chem, 2022).
Activity calls are given as the source filed them. The rule behind the calls is not given here.

How the values were obtained:
MGC-803 [1] = test: Cell cycle arrest in human MGC-803 cells assessed as accumulation of cells at G2/M phase at 48 nM incubated for 24 hrs by PI staining based flow cytometric analysis (Rvb =15.42%); assay type: functional
[2] = molecular target: T1, DNA topoisomerase 1 (Homo sapiens) (UniProt P11387); test: Inhibition of Topoisomerase 1 (unknown origin) at 100 uM incubated for 15 mins by electrophoretic analysis
T1 sequence (whole entry): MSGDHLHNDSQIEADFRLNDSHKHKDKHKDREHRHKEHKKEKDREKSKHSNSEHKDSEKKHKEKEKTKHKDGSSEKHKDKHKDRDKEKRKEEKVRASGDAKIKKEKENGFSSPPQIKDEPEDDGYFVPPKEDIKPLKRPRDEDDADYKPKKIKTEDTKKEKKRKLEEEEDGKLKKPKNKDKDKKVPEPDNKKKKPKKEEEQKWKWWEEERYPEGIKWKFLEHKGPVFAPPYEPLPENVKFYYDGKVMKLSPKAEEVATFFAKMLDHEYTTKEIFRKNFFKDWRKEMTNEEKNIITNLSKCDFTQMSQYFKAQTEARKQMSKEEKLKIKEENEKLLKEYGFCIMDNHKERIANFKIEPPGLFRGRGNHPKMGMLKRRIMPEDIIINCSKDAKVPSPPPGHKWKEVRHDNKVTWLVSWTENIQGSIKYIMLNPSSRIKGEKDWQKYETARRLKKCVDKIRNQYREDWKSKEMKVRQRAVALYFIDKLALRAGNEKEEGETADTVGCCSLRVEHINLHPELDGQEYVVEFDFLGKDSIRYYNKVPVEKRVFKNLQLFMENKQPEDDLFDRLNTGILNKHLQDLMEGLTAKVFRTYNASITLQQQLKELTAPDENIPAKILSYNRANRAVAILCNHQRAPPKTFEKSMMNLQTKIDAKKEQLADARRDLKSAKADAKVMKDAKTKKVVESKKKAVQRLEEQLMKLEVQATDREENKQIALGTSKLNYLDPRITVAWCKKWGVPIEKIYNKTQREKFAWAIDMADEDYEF

[3] = Cmax in rat at 50 mg/kg, ip measured at 0.25 to 24 hrs by LC-MS analysis; assay type: ADME, organism-based; set-up: time lower 0.25 hrs, dose 50 mg/kg, time upper 24 hrs, route ip; settings: in vivo
MGC-803 [4] = test: Induction of apoptosis in human MGC-803 cells assessed as early apoptotic cells at 12 nM incubated for 24 hrs by AnnexinV-FITC/PI staining based flow cytometric analysis (reference value: 0.38%); assay type: functional
SGC-7901 [5] = test: Antimigratory activity against human SGC-7901 cells assessed as reduction in migration ability at 3 to 48 nM incubated for 24 hrs by transwell migration assay; assay type: functional, cell-based; settings: dose 3-48 nM
SGC-7901 [6] = test: Induction of apoptosis in human SGC-7901 cells assessed as viable cells at 12 nM incubated for 24 hrs by AnnexinV-FITC/PI staining based flow cytometric analysis (reference value: 96.94%); assay type: functional; settings: read-out: Activity
MGC-803 [7] = test: Induction of apoptosis in human MGC-803 cells assessed as viable cells at 12 nM incubated for 24 hrs by AnnexinV-FITC/PI staining based flow cytometric analysis (reference value: 98.59%); assay type: functional; settings: read-out: Activity
MGC-803 [8] = test: Induction of apoptosis in human MGC-803 cells assessed as late apoptotic cells at 96 nM incubated for 24 hrs by AnnexinV-FITC/PI staining based flow cytometric analysis (reference value: 0.52%); assay type: functional
MGC-803 [9] = test: Induction of apoptosis in human MGC-803 cells assessed as necrotic cells at 48 nM incubated for 24 hrs by AnnexinV-FITC/PI staining based flow cytometric analysis (reference value: 0.53%); assay type: functional
MGC-803 [10] = test: Induction of apoptosis in human MGC-803 cells assessed as necrotic cells at 12 nM incubated for 24 hrs by AnnexinV-FITC/PI staining based flow cytometric analysis (reference value: 0.53%); assay type: functional
SGC-7901 [11] = test: Cell cycle arrest in human SGC-7901 cells assessed as accumulation of cells at G2/M phase at 12 nM incubated for 24 hrs by PI staining based flow cytometric analysis (Rvb =18.84%); assay type: functional
SGC-7901 [12] = test: Cell cycle arrest in human SGC-7901 cells assessed as accumulation of cells at G0/G1 phase at 12 nM incubated for 24 hrs by PI staining based flow cytometric analysis (Rvb =84.12%); assay type: functional
SGC-7901 [13] = test: Induction of apoptosis in human SGC-7901 cells assessed as viable cells at 48 nM incubated for 24 hrs by AnnexinV-FITC/PI staining based flow cytometric analysis (reference value: 96.94%); assay type: functional; settings: read-out: Activity
[14] = molecular target: T1, DNA topoisomerase 1 (Homo sapiens); test: Inhibition of Topoisomerase 1 (unknown origin) at 50 uM incubated for 15 mins by electrophoretic analysis
MGC-803 [15] = test: Cell cycle arrest in human MGC-803 cells assessed as accumulation of cells at G0/G1 phase at 3 nM incubated for 24 hrs by PI staining based flow cytometric analysis (Rvb =76.60%); assay type: functional
SGC-7901 [16] = test: Induction of apoptosis in human SGC-7901 cells assessed as early apoptotic cells at 48 nM incubated for 24 hrs by AnnexinV-FITC/PI staining based flow cytometric analysis (reference value: 0.47%); assay type: functional
SGC-7901 [17] = test: Cell cycle arrest in human SGC-7901 cells assessed as accumulation of cells at S phase at 3 nM incubated for 24 hrs by PI staining based flow cytometric analysis (Rvb =18.41%); assay type: functional
MGC-803 [18] = test: Cell cycle arrest in human MGC-803 cells assessed as accumulation of cells at G2/M phase at 3 nM incubated for 24 hrs by PI staining based flow cytometric analysis (Rvb =15.42%); assay type: functional
SGC-7901 [19] = test: Cell cycle arrest in human SGC-7901 cells assessed as accumulation of cells at G2/M phase at 48 nM incubated for 24 hrs by PI staining based flow cytometric analysis (Rvb =18.84%); assay type: functional
MGC-803 [20] = test: Induction of apoptosis in human MGC-803 cells assessed as viable cells at 48 nM incubated for 24 hrs by AnnexinV-FITC/PI staining based flow cytometric analysis (reference value: 98.59%); assay type: functional; settings: read-out: Activity
SGC-7901 [21] = test: Antimigratory activity against human SGC-7901 cells assessed as reduction in number of migrating cells at 48 nM incubated for 24 hrs by transwell migration assay relative to control; assay type: functional; set-up: scale not given: the % may be the effect or the level left
MGC-803 [22] = test: Antimigratory activity against human MGC-803 cells assessed as reduction in number of migrating cells at 48 nM incubated for 24 hrs by transwell migration assay relative to control; assay type: functional; set-up: scale not given: the % may be the effect or the level left
MGC-803 [23] = test: Induction of apoptosis in human MGC-803 cells assessed as late apoptotic cells at 48 nM incubated for 24 hrs by AnnexinV-FITC/PI staining based flow cytometric analysis (reference value: 0.52%); assay type: functional
SGC-7901 [24] = test: Antimigratory activity against human SGC-7901 cells assessed as decrease in wound closure rate at 3 to 48 nM incubated for 24 hrs by wound healing assay; assay type: functional, cell-based; settings: dose 3-48 nM
[25] = molecular target: DNA topoisomerase II (Homo sapiens) (UniProt P11388+Q02880); test: Inhibition of Topoisomerase 2 (unknown origin) at 25 uM incubated for 15 mins in the presence of ATP by electrophoretic analysis relative to control; assay type: protein assay
MGC-803 [26] = test: Antiinvasive activity against human MGC-803 cells assessed as reduction in number of invading cells at 48 nM incubated for 48 hrs by transwell invasion assay relative to control; assay type: functional; set-up: scale not given: the % may be the effect or the level left

SMILES	Activity (MGC-803 [1]) [%]	inhibition [2]	Cmax [3] [ng/mL]	Activity (MGC-803 [4]) [%]	Activity (SGC-7901 [5])	viability at 0.012 µM (SGC-7901 [6]) [%]	viability at 0.012 µM (MGC-803 [7]) [%]	Activity (MGC-803 [8]) [%]	Activity (MGC-803 [9]) [%]	Activity (MGC-803 [10]) [%]	Activity (SGC-7901 [11]) [%]	Activity (SGC-7901 [12]) [%]	viability at 0.048 µM (SGC-7901 [13]) [%]	inhibition [14]	Activity (MGC-803 [15]) [%]	Activity (SGC-7901 [16]) [%]	Activity (SGC-7901 [17]) [%]	Activity (MGC-803 [18]) [%]	Activity (SGC-7901 [19]) [%]	viability at 0.048 µM (MGC-803 [20]) [%]	further results
CC(=O)Oc1ccc2[nH]c3c(c2c1)CCN1C(=O)c2cc(F)ccc2N(c2cccc(F)c2)C31 (configuration not stated)	63.34	Active	9300	2.26	Active	91.5	83.9	21.94	1.51	0.78	18.95	60.64	80.6	Active	78.98	2.58	15.57	13.29	53.65	82.2	Activity (SGC-7901 [21]): 36.12%; Activity (MGC-803 [22]): 38.93%; Activity (MGC-803 [23]): 12.66%; Activity (SGC-7901 [24]): Active; inhibition [25]: 71.8%; Activity (MGC-803 [26]): 29.21%
O=C1c2cc(F)ccc2N(c2cccc(F)c2)C2c3[nH]c4ccc(O)cc4c3CCN12 (configuration not stated)	86.57	Active	4090	1.28	Active	94.7	91.2	20.56	2.36	1.05	19.72	63.89	89.8	Active	77.18	1.4	13.44	15.36	86.06	86.2	Activity (SGC-7901 [21]): 41.06%; Activity (MGC-803 [22]): 36.03%; Activity (MGC-803 [23]): 10.42%; Activity (SGC-7901 [24]): Active; inhibition [25]: 55.5%; Activity (MGC-803 [26]): 37.11%
